# According to paper PMC10135569, “Does Enhanced Structural Maturity of hiPSC-Cardiomyocytes Better for the Detection of Drug-Induced Cardiotoxicity?” (Biomolecules, 2023):
# Key:
# [1] = test system: hiPSC-CMs (iCell2 Cardiomyocytes) 2D monolayers; experiment: Membrane potential (action potential) recordings with FluoVolt voltage-sensitive dye on the CellOPTIQ platform; format: cell-based, human; conditions: for activity at 3 µM / activity at 0.1 µM / activity at 0.3 µM / activity at 1 µM: Homo sapiens, Cardiomyocyte, 0.5 h, 30 min, delta over DMSO 0.1%
# Protocol: (§1) Cardiomyocytes (FUJIFILM Cellular Dynamics, Madison, WI, USA) were kept at −190 °C and prepared for culture as per the manufacturer’s instructions.
# (§2) Standard fibronectin vs. Matrix Plus well coating: The cells were cultured using two different coatings in a humidified incubator at 37 °C with 5% CO2. First, 96-well glass-bottomed plates (MatTek, Ashland, MA) were coated with fibronectin ([…] in PBS supplemented with Ca^2+ and Mg^2+; Sigma, St. Louis, MO, USA) (defining FM). Second, CELLvo^TM Matrix Plus (StemBioSys, San Antonio, TX, USA), which were pre-coated on 96 well glass bottom plates and kept at 4 °C. On the day of plating, CELLvo^TM Matrix Plus plates were transferred to room temperature, rehydrated with phosphate buffer saline (PBS), incubated for 1 h at 37 °C, and washed 2× with PBS. Cells were introduced at a density of 50,000 cells/well to allow the formation of a confluent monolayer in each well (defined as MM). The maintenance protocols followed the manufacturer’s instructions and used the iCell^2 Cardiomyocytes Maintenance media for media changes every 2 days. Experiments were performed between days 5 and 6, as recommended by the manufacturers. Before beginning an experiment, cells were washed in serum-free media (SF media) (Fluorobrite DMEM, Gibco, Thermo Fisher Scientific, Horsham, UK).
# (§3) The drug powders were dissolved in DMSO, and four stock concentrations at 1000× the final target concentration were prepared in DMSO. For the experiment, an intermediate concentration 2× the target solution was prepared in SF media. The addition of drugs to the cells was accomplished by replacing 50% of the well volume with the intermediate 2× solution. The same procedure was done for vehicle control using DMSO. The experimental number n = 8/concentration/testing compound in the FM or MM condition, and n = 36 for each positive or negative control in the FM or MM condition.
# Cultures of hiPSC-CMs (5–6 days post-plating) were treated with FluoVolt dye (1:1000, Invitrogen, Cat# F10488) in SF media and incubated for 20 min at 37 °C with 5% CO2 and 80% humidity. Multi-well plates were placed in the environmentally controlled stage incubator (37 °C, 5% CO2, water-saturated air atmosphere) (Okolab Inc. Burlingame, CA) of the CellOPTIQ® platform (Clyde Biosciences Ltd., Glasgow, Scotland). The FluoVolt signal was recorded from a 0.2 mm × 0.2 mm area using a 40× (numerical aperture: NA 0.6) Excitation wavelength was 470 ± 10 nm using a light-emitting diode (LED), and emitted light was collected by two photomultipliers (PMTs) at 510–560 nm (channel 1) and 590–650 nm (channel 2), respectively. LED, PMT, and associated power supplies and amplifiers were supplied by Cairn Research Ltd. (Kent, UK) and digitized at 10 kHz and stored on a computer hard drive. In the case of FluoVolt-based action potential recordings, the short wavelength (channel 1, […]) was analyzed for action potential features.
# (§4) The dye FluoVolt is loaded into the surface membrane (outer leaflet), and the dye remains within the membrane for many dots, allowing intermittent voltage measurements over the experimental period. In this study, measurements were restricted to within 30 mins of application of the drug. The measurements were made on the same area before/after drug/DMSO addition. […] Baseline spontaneous electrical activity and the associated contractility signal were recorded by capturing 10 s segments of fluorescent signal and video for 2D plates and 15 s for organoids from each well prior to compound addition. Drugs were tested at four concentrations in n = 8 independent replicates (i.e., 8 wells from a single plating) at each concentration. A vehicle control was included for each drug. A 10 s or 15 s recording was then taken 30 min after exposure to the drug or vehicle with only one concentration applied/well.
# [2] = test system: hiPSC-CMs (iCell2 Cardiomyocytes) 2D monolayers; experiment: Contractility measurements using video imaging (ContractilityTool / MUSCLEMOTION); format: cell-based, human; conditions: Homo sapiens, Cardiomyocyte, 0.5 h, 30 min, delta over DMSO 0.1%
# Protocol: as §1, §2, §3
# as §4, with “applied/well. Offline analysis was performed using proprietary software (CellOPTIQ®).” for “applied/well.”
# Short periods (10 s or 15 s) of video were analyzed using the ContractilityTool application (developed by F.L. Burton), which is an implementation of the MUSCLEMOTION algorithm.
# [3] = MM monolayer, read-out: APD30 (%DD)
# [4] = MM monolayer, read-out: APD90 (%DD)
# [5] = MM monolayer, read-out: CL (%DD)
# [6] = MM monolayer, read-out: Trise (%DD)
# [7] = read-out: APD30 (%DD), FM monolayer
# [8] = read-out: APD90 (%DD), FM monolayer
# [9] = read-out: CL (%DD), FM monolayer
# [10] = read-out: Trise (%DD), FM monolayer
# [11] = FM monolayer, read-out: CtAmp (%DD)
# [12] = FM monolayer, read-out: CtD50 (%DD)
# [13] = MM monolayer, read-out: CtAmp (%DD)
# [14] = MM monolayer, read-out: CtD50 (%DD)
smiles,measurement,setting,value
O=C1CCCN1CC#CCN1CCCC1 [Oxotremorine],activity at 3 µM,"[1]; FM monolayer, read-out: Trise (%DD)",132 ± 11.2%
same,activity at 0.1 µM,[1]; [3],104 ± 1.7%
same,activity at 0.1 µM,[1]; [4],104 ± 1%
same,activity at 0.1 µM,[1]; [5],111 ± 2.8%
same,activity at 0.1 µM,[1]; [6],124 ± 18.7%
same,activity at 0.3 µM,[1]; [3],110 ± 3.4%
same,activity at 0.3 µM,[1]; [4],108 ± 1.1%
same,activity at 0.3 µM,[1]; [5],115 ± 3.3%
same,activity at 0.3 µM,[1]; [6],144 ± 26.3%
same,activity at 1 µM,[1]; [3],110 ± 2.8%
same,activity at 1 µM,[1]; [4],114 ± 1.1%
same,activity at 1 µM,[1]; [5],120 ± 1.4%
same,activity at 1 µM,[1]; [6],117 ± 17%
same,activity at 3 µM,[1]; [3],115 ± 3.8%
same,activity at 3 µM,[1]; [4],113 ± 1.2%
same,activity at 3 µM,[1]; [5],123 ± 1.1%
same,activity at 3 µM,[1]; [6],158 ± 32%
same,activity at 0.1 µM,[1]; [7],106 ± 2.3%
same,activity at 0.3 µM,[1]; [7],111 ± 3.3%
same,activity at 1 µM,[1]; [7],110 ± 4.4%
same,activity at 3 µM,[1]; [7],107 ± 3.4%
same,activity at 0.1 µM,[1]; [8],103 ± 1.3%
same,activity at 0.3 µM,[1]; [8],105 ± 2.8%
same,activity at 1 µM,[1]; [8],111 ± 1.7%
same,activity at 3 µM,[1]; [8],101 ± 2.8%
same,activity at 0.1 µM,[1]; [9],117 ± 1.3%
same,activity at 0.3 µM,[1]; [9],122 ± 1.8%
same,activity at 1 µM,[1]; [9],121 ± 2.9%
same,activity at 3 µM,[1]; [9],111 ± 3.6%
same,activity at 0.1 µM,[1]; [10],155 ± 41.3%
same,activity at 0.3 µM,[1]; [10],145 ± 24.3%
same,activity at 1 µM,[1]; [10],117 ± 13.3%
same,effect on beating rate / spontaneous rate (in words),"[1]; both FM and MM, concentration not given",decrease
same,changes in the APD,[1]; both groups (FM and MM),< 10%
same,activity at 0.1 µM,[2]; [11],140 ± 19.7%
same,activity at 0.1 µM,[2]; [12],108 ± 1.9%
same,activity at 0.3 µM,[2]; [11],105 ± 16.5%
same,activity at 0.3 µM,[2]; [12],112 ± 2.5%
same,activity at 1 µM,[2]; [11],117 ± 14.5%
same,activity at 1 µM,[2]; [12],116 ± 2.8%
same,activity at 3 µM,[2]; [11],166 ± 17.6%
same,activity at 3 µM,[2]; [12],110 ± 1.6%
same,activity at 0.1 µM,[2]; [13],106 ± 11.7%
same,activity at 0.1 µM,[2]; [14],116 ± 2.1%
same,activity at 0.3 µM,[2]; [13],97 ± 12.9%
same,activity at 0.3 µM,[2]; [14],117 ± 1.1%
same,activity at 1 µM,[2]; [13],105 ± 10.2%
same,activity at 1 µM,[2]; [14],118 ± 1.6%
same,activity at 3 µM,[2]; [13],103 ± 7.4%
same,activity at 3 µM,[2]; [14],120 ± 2.3%
